Assay results reported in PMC8352664 (The Journal of Biological Chemistry, 2021).

What was measured:
Format in all cases: binding, human
TRAV12-2 TCR NR2F = conditions: pH 7.5
TRAV12-1 TCR NR1C = conditions: pH 7.5
TRAV12-1 TCR NR1D = conditions: pH 7.5
TRAV12-1 TCR NR1A = conditions: pH 7.5
TRAV12^+ TCRs = tested on: TRAV12^+ TCRs

Row | Sequence | KD, NR2F (TRAV12-2 TCR NR2F) | KD, NR1C (TRAV12-1 TCR NR1C) | KD, NR1D (TRAV12-1 TCR NR1D) | KD, NR1A (TRAV12-1 TCR NR1A) | TCR binding to HLA-A2 presenting the changed epitope (TRAV12^+ TCRs)
1 | TLDPRSFLL [PAR1] | N.B. | N.B. |  |  | 
2 | YLQPSTFLL [S^269–277R273S] | N.B. | N.B. | N.B. | N.B. | completely abrogated TCR binding
